Reference: patent US20110039762A1, “TARGETED ANTIMICROBIAL MOIETIES” (C3 JIAN, INC., priority 2009, published 2011)
Entries after “also recorded” stand apart in the source; their conditions may differ.

Legend:
S. pneumoniae = experiment: Kill or inhibit growth/proliferation; morphology, biofilm and growth disruption (Tables 5, 6); format: cell-based, Streptococcus pneumoniae; design: key: A: Peptide aggregates; B: Less hyphal formation; Clumps; Diffuse clumps and small polyps; F: Diffuse growth; H: Thin; I: Growth inhibition; Microcolony formation; Rippled; Small polyps; Thick; W: Halo formation on top, microlonies on bottom; further: test concentration or dose not given here
C. jejuni = experiment: as above; format: cell-based, Campylobacter jejuni; design: key: A: Peptide aggregates; B: Less hyphal formation; Clumps; Diffuse clumps and small polyps; F: Diffuse growth; H: Thin; I: Growth inhibition; Microcolony formation; Rippled; Small polyps; Thick; W: Halo formation on top, microlonies on bottom
E. faecalis = experiment: as above; format: cell-based, Enterococcus faecalis; design: key: A: Peptide aggregates; B: Less hyphal formation; Clumps; Diffuse clumps and small polyps; F: Diffuse growth; H: Thin; I: Growth inhibition; Microcolony formation; Rippled; Small polyps; Thick; W: Halo formation on top, microlonies on bottom
S. epidermidis = experiment: as above; format: cell-based, Staphylococcus epidermidis; design: key: A: Peptide aggregates; B: Less hyphal formation; Clumps; Diffuse clumps and small polyps; F: Diffuse growth; H: Thin; I: Growth inhibition; Microcolony formation; Rippled; Small polyps; Thick; W: Halo formation on top, microlonies on bottom
M. luteus = experiment: as above; format: cell-based, Micrococcus luteus; design: key: A: Peptide aggregates; B: Less hyphal formation; Clumps; Diffuse clumps and small polyps; F: Diffuse growth; H: Thin; I: Growth inhibition; Microcolony formation; Rippled; Small polyps; Thick; W: Halo formation on top, microlonies on bottom
MRSA = experiment: as above; format: cell-based, Methicillin-resistant Staphylococcus aureus; design: key: A: Peptide aggregates; B: Less hyphal formation; Clumps; Diffuse clumps and small polyps; F: Diffuse growth; H: Thin; I: Growth inhibition; Microcolony formation; Rippled; Small polyps; Thick; W: Halo formation on top, microlonies on bottom
microorganisms = experiment: Peptides having multiple activities (targeting/binding, antimicrobial, growth or phenotype altering)
Source text: In certain embodiments, peptides described herein can have multiple activities. Thus for example, a peptide can have both binding/targeting activity and antimicrobial activity. Such peptides can be used, e.g., in a chimeric construct, for any or all of these properties. Thus, for example, a peptide designated “B” in Table 8 can be used as a targeting peptide. If it is also designated G or M it can also be used for antimicrobial activity.

[1] = tested on: microorganisms (e.g., bacteria, yeasts, fungi); experiment: Targeting peptide binding to target microorganisms (Table 3); conditions: preferably 1x PBS; for Target(s): microorganism(s) the targeting peptide binds; for Target(s) (microorganisms bound by the targeting peptide): peptide binding in aqueous buffers varied by peptide solubility
E. coli = experiment: Kill or inhibit growth/proliferation; morphology, biofilm and growth disruption (Tables 5, 6); format: cell-based, Escherichia coli; design: key: A: Peptide aggregates; B: Less hyphal formation; Clumps; Diffuse clumps and small polyps; F: Diffuse growth; H: Thin; I: Growth inhibition; Microcolony formation; Rippled; Small polyps; Thick; W: Halo formation on top, microlonies on bottom; further: test concentration or dose not given here
[2] = binding in aqueous buffers depending on peptide solubility
[3] = peptide binding conducted in aqueous buffers varied by peptide solubility
Wherever Organism, effect is given: test concentration or dose not given here.

## DLLKSLLGQDGAKNDEIIEFIKIIMEK [PF-591]
S. pneumoniae
  Organism, effect: S. pneumoniae (R)
C. jejuni
  Organism, effect: C. jejuni (C)
E. faecalis
  Organism, effect: E. faecalis (A)

## EILNNNQVIKELTMKYKTQFESNLGGWTARARR [PF-580]
S. epidermidis
  Organism, effect: S. epidermidis (M)
S. pneumoniae
  Organism, effect: S. pneumoniae (C)
M. luteus
  Organism, effect: M. luteus (C)
MRSA
  Organism, effect: MRSA (M)
microorganisms
  Activities: G B

## LMFFSENMDKRDTLSGKFRYFAGSKVIKLMNWLSENGK [PF-226]
S. epidermidis
  Organism, effect: S. epidermidis (C)
[1]; [2]
  Target(s): A. baumannii
M. luteus
  Organism, effect: M. luteus (T)
microorganisms
  Activities: G B

## MGIIAGIIKVIKSLIEQFTGK [PF-007]
S. epidermidis
  Organism, effect: S. epidermidis (A)
M. luteus
  Organism, effect: M. luteus (A)
E. faecalis
  Organism, effect: E. faecalis (A)
MRSA
  Organism, effect: MRSA (R)
microorganisms
  Activities: G B
E. coli
  Organism, effect: E. coli (A)

## PF-059 (TITLKAGIERALHEEVPGVIEVEQVF; Peptide with targeting and/or antimicrobial activity)
C. jejuni
  Organism, effect: C. jejuni (C)

## PF-125: peptide having multiple activities (YVVGALVILAVAGLIYSMLRKA; Peptide with targeting and/or antimicrobial activity)
S. epidermidis
  Organism, effect: S. epidermidis (D)
M. luteus
  Organism, effect: M. luteus (C)
microorganisms
  Activities: G B

## PF-249: peptide having multiple activities (INSRYKISF; Peptide with targeting and/or antimicrobial activity)
[1]; [2]
  Target(s): S. epidermidis; also recorded: M. luteus
M. luteus
  Organism, effect: M. luteus (R)
microorganisms
  Activities: G B

## PF-255: peptide having multiple activities (DHKINESQHNPFRSDSNKQNVDFF; Peptide with targeting and/or antimicrobial activity)
[1]; [2]
  Target(s): P. aeruginosa
M. luteus
  Organism, effect: M. luteus (M)
microorganisms
  Activities: G B

## PF-270: peptide having multiple activities (MYLTPYAWIAVGSIFAFSVTTIKIGDQNDEKQKSHKNDVHKR; Peptide with targeting and/or antimicrobial activity)
[1]; [2]
  Target(s): S. epidermidis; also recorded: M. luteus; also recorded: P. aeruginosa
M. luteus
  Organism, effect: M. luteus (H)
microorganisms
  Activities: G B

## PF-271: peptide having multiple activities (AAQPQTTSP; Peptide with targeting and/or antimicrobial activity)
[1]; [2]
  Target(s): S. epidermidis; also recorded: M. luteus; also recorded: P. aeruginosa; also recorded: A. baumannii
M. luteus
  Organism, effect: M. luteus (T)
microorganisms
  Activities: G B

## PF-276: peptide having multiple activities (LDLALSTNSLNLEGFSF; Peptide with targeting and/or antimicrobial activity)
[1]; [2]
  Target(s): S. epidermidis
M. luteus
  Organism, effect: M. luteus (M)
microorganisms
  Activities: G B

## PF-357: peptide having multiple activities (chain 1 MLTIIIGFIFWTMTLMLGYLIGEREGRKHE; chain 2 MLTIIIGFIFWTMTLMLGYLIGEREGRKHE; Peptide with targeting and/or antimicrobial activity)
S. epidermidis
  Organism, effect: S. epidermidis (M)
S. pneumoniae
  Organism, effect: S. pneumoniae (M)
M. luteus
  Organism, effect: M. luteus (C)
MRSA
  Organism, effect: MRSA (M)
microorganisms
  Activities: G B

## PF-392: peptide having multiple activities (chain 1 DPAGCNDIVRKYCK; chain 2 DPAGCNDIVRKYCK; Peptide with targeting and/or antimicrobial activity)
C. jejuni
  Organism, effect: C. jejuni (A)
[1]; [3]
  Target(s): S. epidermidis; also recorded: B. subtilis; also recorded: S. pneumoniae; also recorded: C. jeikeium; also recorded: C. jejuni
E. faecalis
  Organism, effect: E. faecalis (A)
MRSA
  Organism, effect: MRSA (S)
microorganisms
  Activities: G B

## PF-393: peptide having multiple activities (chain 1 DLVQSILSEFKKSG; chain 2 DLVQSILSEFKKSG; Peptide with targeting and/or antimicrobial activity)
S. epidermidis
  Organism, effect: S. epidermidis (R)
S. pneumoniae
  Organism, effect: S. pneumoniae (R)
C. jejuni
  Organism, effect: C. jejuni (R)
[1]; [3]
  Target(s): S. epidermidis and E. coli and C. albicans and MRSA and S. pneumoniae and C. jejuni
E. faecalis
  Organism, effect: E. faecalis (A)
MRSA
  Organism, effect: MRSA (C)
microorganisms
  Activities: G B

## PF-431: peptide having multiple activities (VAYAAICWW; Peptide with targeting and/or antimicrobial activity)
S. epidermidis
  Organism, effect: S. epidermidis (M)
S. pneumoniae
  Organism, effect: S. pneumoniae (R)
C. jejuni
  Organism, effect: C. jejuni (R)
E. faecalis
  Organism, effect: E. faecalis (R)
MRSA
  Organism, effect: MRSA (C)
microorganisms
  Activities: G B

## PF-456: peptide having multiple activities (chain 1 TCVKPRTIN; chain 2 TCVKPRTIN; Peptide with targeting and/or antimicrobial activity)
C. jejuni
  Organism, effect: C. jejuni (A)
[1]; [3]
  Target(s): C. albicans and MRSA and E. faecalis and C. jeikeium and C. jejuni
E. faecalis
  Organism, effect: E. faecalis (A)
microorganisms
  Activities: G B

## PF-470: peptide having multiple activities (chain 1 PYSDSYATRPHWEQHRAR; chain 2 PYSDSYATRPHWEQHRAR; Peptide with targeting and/or antimicrobial activity)
C. jejuni
  Organism, effect: C. jejuni (A)
[1]; [3]
  Target(s): M. luteus and E. coli and MRSA and E. faecalis and C. jeikeium and C. jejuni
E. faecalis
  Organism, effect: E. faecalis (A)
microorganisms
  Activities: G B

## PF-581: peptide having multiple activities (WTARARR; Peptide with targeting and/or antimicrobial activity)
S. pneumoniae
  Organism, effect: S. pneumoniae (A)
C. jejuni
  Organism, effect: C. jejuni (A)
E. faecalis
  Organism, effect: E. faecalis (A)
MRSA
  Organism, effect: MRSA (A)
microorganisms
  Activities: G B

## PF-590: peptide having multiple activities (YYQAKLFPLL; Peptide with targeting and/or antimicrobial activity)
C. jejuni
  Organism, effect: C. jejuni (R)
[1]; [3]
  Target(s): S. epidermidis; also recorded: M. luteus; also recorded: E. coli; also recorded: E. faecalis; also recorded: C. jeikeium
microorganisms
  Activities: G B

## PF-601: peptide having multiple activities (YRVTVKALE; Peptide with targeting and/or antimicrobial activity)
C. jejuni
  Organism, effect: C. jejuni (A)
[1]
  Target(s) (microorganisms bound by the targeting peptide): C. jeikeium
E. faecalis
  Organism, effect: E. faecalis (A)
microorganisms
  Activities: G B

## PF-609: peptide having multiple activities (TEIKLDNNEYLVLNLDDILGILK; Peptide with targeting and/or antimicrobial activity)
S. pneumoniae
  Organism, effect: S. pneumoniae (R)
C. jejuni
  Organism, effect: C. jejuni (R)
[1]
  Target(s) (microorganisms bound by the targeting peptide): P. mirabilis; also recorded: E. coli; also recorded: S. pneumoniae
E. faecalis
  Organism, effect: E. faecalis (A)
MRSA
  Organism, effect: MRSA (C)
microorganisms
  Activities: G B

## PF-614: peptide having multiple activities (GLDIYA; Peptide with targeting and/or antimicrobial activity)
S. epidermidis
  Organism, effect: S. epidermidis (M)
S. pneumoniae
  Organism, effect: S. pneumoniae (R)
C. jejuni
  Organism, effect: C. jejuni (R)
[1]
  Target(s) (microorganisms bound by the targeting peptide): S. epidermidis; also recorded: E. coli; also recorded: C. jeikeium
E. faecalis
  Organism, effect: E. faecalis (A)

## VWENRKKYLENEIERHNVFLKLGQEVIKGLNALASRGR [PF-257]
[1]; [2]
  Target(s): S. epidermidis
M. luteus
  Organism, effect: M. luteus (R)
microorganisms
  Activities: G B
